25 molecules from patent publication US9255100B2 (BAYER INTELLECTUAL PROPERTY GMBH, priority 2010, dated 2016) can be followed below.

The target in the experiment is T1, N-terminally GST-tagged human full length recombinant Mps-1 kinase (Homo sapiens, UniProt P33981).
T1 construct: N-terminally GST-tagged human full length recombinant Mps-1 kinase; purchased Invitrogen, Karslruhe, Germany PV4071
T1 sequence (P33981 1-857): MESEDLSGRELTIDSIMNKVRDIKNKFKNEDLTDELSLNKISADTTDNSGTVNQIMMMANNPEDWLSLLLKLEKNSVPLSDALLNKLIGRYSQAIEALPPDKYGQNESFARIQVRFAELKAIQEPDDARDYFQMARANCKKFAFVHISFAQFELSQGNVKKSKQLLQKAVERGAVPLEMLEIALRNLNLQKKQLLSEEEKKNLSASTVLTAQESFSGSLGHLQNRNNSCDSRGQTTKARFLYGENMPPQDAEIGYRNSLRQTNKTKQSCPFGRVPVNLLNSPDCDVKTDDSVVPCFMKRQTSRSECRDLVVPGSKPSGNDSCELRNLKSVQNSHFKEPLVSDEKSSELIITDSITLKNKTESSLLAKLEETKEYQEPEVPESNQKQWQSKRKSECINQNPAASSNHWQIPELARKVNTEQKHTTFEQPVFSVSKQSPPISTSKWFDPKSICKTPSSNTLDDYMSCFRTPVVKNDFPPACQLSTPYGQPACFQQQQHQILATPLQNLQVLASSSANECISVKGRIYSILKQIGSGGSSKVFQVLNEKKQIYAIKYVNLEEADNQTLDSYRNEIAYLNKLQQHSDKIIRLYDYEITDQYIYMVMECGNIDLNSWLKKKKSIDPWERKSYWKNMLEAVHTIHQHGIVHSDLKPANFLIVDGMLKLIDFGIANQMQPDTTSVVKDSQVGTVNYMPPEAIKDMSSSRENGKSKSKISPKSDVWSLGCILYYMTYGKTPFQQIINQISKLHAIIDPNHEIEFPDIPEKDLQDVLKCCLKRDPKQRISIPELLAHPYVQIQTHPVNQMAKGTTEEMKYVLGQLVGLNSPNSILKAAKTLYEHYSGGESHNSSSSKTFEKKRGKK
The experiment is described as follows: Mps-1 kinase assay (TR-FRET). It is filed as biochemical. As to conditions: Mps1 IC50 [nM], 10 μM ATP, 1 μM peptide substrate, 60 min at 22° C. The procedure, abridged:
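Kinase activity of N-terminally GST-tagged full-length recombinant Mps-1, used at about 1 nM final and set within the linear range, was measured on a biotinylated peptide substrate. Phosphopeptide was detected by TR-FRET from Eu-anti-phospho(Ser/Thr) antibody to streptavidin-XLent after 1 h at 22° C.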
On to `CC(C)CNc1cc(-c2ccnc3ccccc23)nn2c(-c3ccc(C(=O)NC4CC4)cc3)cnc12` [Example 112, N-cyclopropyl-4-{8-[(2-methylpropyl)amino]-6-(quinolin-4-yl)imidazol [1,2-b]pyridazin-3-yl} benzamide], for which the IC50 turned out to be 5.1 nM.

For `Cc1cc(-c2cnc3c(NCC(C)(C)O)cc(Oc4ccc(F)nc4)nn23)ccc1C(=O)NC1CC1` [Example 410, N-cyclopropyl-4-{6-[(6-fluoropyridin-3-yl)oxy]-8-[(2-hydroxy-2-methylpropyl)amino]imidazo[1,2-b]pyridazin-3-yl}-2-methylbenzamide], the IC50 amounted to 0.5 nM. Under `Cc1cc(-c2cnc3c(NCC(O)C(F)(F)F)cc(-c4ccnn4C)nn23)ccc1C(=O)NC1CC1` (racemic) [Example 208, (RS)—N-cyclopropyl-2-methyl-4-{6-(1-methyl-1H-pyrazol-5-yl)-8-[(3,3,3-trifluoro-2-hydroxypropyl)amino]imidazo[1,2-b]pyridazin-3-yl}benzamide] stands 2 nM; under `Cc1cc(-c2cnc3c(NCC4CCN(C)CC4)cc(Oc4cccnc4)nn23)ccc1C(=O)NC1CC1` [Example 527, N-cyclopropyl-2-methyl-4-[8-{[(1-methylpiperidin-4-yl)methyl]amino}-6-(pyridin-3-yloxy)imidazo [1,2-b]pyridazin-3-yl]benzamide], 0.6 nM. The result for `Cc1cc(-c2cnc3c(NCCN4CCOCC4)cc(Oc4cncc(F)c4)nn23)ccc1C(=O)NC1CC1` [Example 541, N-cyclopropyl-4-(6-[(5-fluoro-pyridin-3-yl)oxy]-8-{[2-(morpholin-4-yl)ethyl]amino}imidazo[1,2-b]pyridazin-3-yl)-2-methylbenzamide] reads 0.4 nM. Under `Cc1ccccc1-c1cc(NCC(C)C)c2ncc(-c3ccc(C(=O)NC4CC4)cc3)n2n1` [Example 110] stands 1.3 nM; under `CC(C)CNc1cc(-c2ccc(C(=O)NC(C)C)cc2)nn2c(-c3ccc(C(=O)NC4CC4)cc3)cnc12` [Example 120, 4-{3-[4-(Cyclopropylcarbamoyl)phenyl]-8-[(2-methylpropyl)amino]imidazo[1,2-b]pyridazin-6-yl}-N-(propan-2-yl)benzamide], 2.5 nM. Take `CNC(=O)c1ccc(-c2cnc3c(NCCOC)cc(Oc4ccccc4)nn23)cc1C` [Example 587, 4-{8-[(2-methoxyethyl)amino]-6-phenoxyimidazo[1,2-b]pyridazin-3-yl}-N,2-dimethylbenzamide]: the IC50 worked out at 3.2 nM.

For `C/C=C(\C)c1cc(NCC(C)(C)O)c2ncc(-c3ccc(C(=O)NC4CC4)c(C)c3)n2n1` [Example 25, 4-{6-[(2E)-But-2-en-2-yl]-8-[(2-hydroxy-2-methylpropyl)amino]imidazo[1,2-b]pyridazin-3-yl}-N-cyclopropyl-2-methylbenzamide], the IC50 was 13.1 nM.

As for `COC(C)(C)CNc1cc(-c2ccncc2)nn2c(-c3ccc(C(=O)NC4CC4)c(C)c3)cnc12` [Example 17, N-cyclopropyl-4-{8-[(2-methoxy-2-methylpropyl)amino]-6-(pyridin-4-yl)imidazo[1,2-b]pyridazin-3-yl}-2-methylbenzamide], the IC50 turned out to be 3.2 nM.

On to `CC(C)CNc1cc(-c2ccc(CO)cc2)nn2c(-c3ccc(C(=O)NC4CC4)cc3)cnc12` [Example 133, N-cyclopropyl-4-{6-[4-(hydroxymethyl)phenyl]-8-[(2-methylpropyl)amino]imidazo[1,2-b]pyridazin-3-yl}benzamide], for which the IC50 was less than 1 nM. Regarding `Cc1cccc(Oc2cc(NCCC(F)(F)F)c3ncc(-c4ccc(C(=O)NC5CC5)c(C)c4)n3n2)c1` [Example 470, N-cyclopropyl-2-methyl-4-{6-(3-methylphenoxy)-8-[(3,3,3-trifluoro-propyl)amino]imidazo [1,2-b]pyridazin-3-yl} benzamide], the IC50 was determined as 0.4 nM.

On to `CC(C)(O)CNc1cc(-c2ccncc2)nn2c(-c3ccc(C(=S)NC4CC4)cc3)cnc12` [Example 47, N-cyclopropyl-4-{8-[(2-hydroxy-2-methylpropyl)amino]-6-(pyridin-4-yl)imidazo[1,2-b]pyridazin-3-yl}benzenecarbothioamide], for which the IC50 worked out at 2 nM. Take `Cc1cc(-c2cnc3c(NCC(C)(C)O)cc(C4=CCNCC4)nn23)ccc1C(=O)NC1CC1` [Example 42, N-cyclopropyl-4-{8-[(2-hydroxy-2-methylpropyl)amino]-6-(1,2,3,6-tetrahydropyridin-4-yl)imidazo[1,2-b]pyridazin-3-yl}-2-methylbenzamide]: the IC50 turned out to be 7.8 nM. Consider `Cc1cc(-c2cnc3c(NCCN4CCOCC4)cc(Oc4ccc(F)c(F)c4)nn23)ccc1C(=O)NC1CC1` [Example 540, N-cyclopropyl-4-[6-(3,4-difluoro-phenoxy)-8-{[2-(morpholin-4-yl)ethyl]amino}imidazo[1,2-b]pyridazin-3-yl]-2-methyl-benzamide], for which the IC50 turned out to be 0.1 nM. Under `Cc1cc(-c2cnc3c(NCCC(F)(F)F)cc(Oc4cccc5ccc(=O)[nH]c45)nn23)ccc1C(=O)NC1CC1` [Example 468, N-cyclopropyl-2-methyl-4-{6-[(2-oxo-1,2-dihydro-quinolin-8-yl)oxy]-8-[(3,3,3-trifluoropropyl)amino]imidazo[1,2-b]pyridazin-3-yl} benzamide] stands 7.5 nM.

With `Cc1cc(-c2cnc3c(NCC(C)(C)O)cc(Nc4ccc(F)cc4)nn23)ccc1C(=O)NC1CC1` [Example 305, N-cyclopropyl-4-{6-[(4-fluorophenyl)amino]-8-[(2-hydroxy-2-methylpropyl)amino]imidazo[1,2-b]pyridazin-3-yl}-2-methylbenzamide], the IC50 came to 0.6 nM. The result for `Cc1cc(-c2cnc3c(NCC4CCSCC4)cc(Sc4cccc(F)c4)nn23)ccc1C(=O)NC1CC1` [Example 285, N-cyclopropyl-4-{6-[(3-fluorophenyl)sulfanyl]-8-[(tetrahydro-2H-thiopyran-4-ylmethyl)amino]imidazo[1,2-b]pyridazin-3-yl}-2-methylbenzamide] reads 0.4 nM; that for `C=Cc1cccc(Nc2cc(NCC(C)(C)O)c3ncc(-c4ccc(C(=O)NC5CC5)c(C)c4)n3n2)c1` [Example 409, N-cyclopropyl-4-{6-[(3-ethenylphenyl)amino]-8-[(2-hydroxy-2-methylpropyl)amino]imidazo[1,2-b]pyridazin-3-yl}-2-methylbenzamide], 0.7 nM; that for `OCc1ccccc1-c1cc(NCCC(F)(F)F)c2ncc(-c3ccc(C(=S)NC4CC4)cc3)n2n1` [Example 44, N-cyclopropyl-4-{6-[2-(hydroxymethyl)phenyl]-8-[(3,3,3-trifluoropropyl)amino]imidazo[1,2-b]pyridazin-3-yl}benzenecarbothioamide], 2.6 nM. Under `Cc1cc(-c2cnc3c(NCC(C)(C)O)cc(-c4ccc(CO)cc4)nn23)ccc1C(=O)NC1CC1` [Example 155, N-cyclopropyl-4-{6-[4-(hydroxymethyl)phenyl]-8-[(2-hydroxy-2-methylpropyl)amino]imidazo[1,2-b]pyridazin-3-yl}-2-methylbenzamide] stands 3.6 nM; under `Cc1cc(-c2cnc3c(NCC(C)(C)O)cc(O[C@H]4CCNC4=O)nn23)ccc1C(=O)NC1CC1` [Example 263, N-cyclopropyl-4-(8-[(2-hydroxy-2-methylpropyl)amino]-6-{[(3S)-2-oxopyrrolidin-3-yl]oxy}imidazo[1,2-b]pyridazin-3-yl)-2-methylbenzamide], 32.4 nM.

For `COc1ccc(Oc2cc(NCCC(F)(F)F)c3ncc(-c4ccc(C(=O)NC5CC5)c(C)c4)n3n2)cc1` [Example 471, N-cyclopropyl-4-{6-(4-methoxyphenoxy)-8-[(3,3,3-trifluoropropyl)amino]imidazo[1,2-b]pyridazin-3-yl}-2-methylbenzamide], the IC50 turned out to be 0.2 nM. The result for `CC(C)(O)CNc1cc(Oc2cccc(F)c2)nn2c(-c3ccc(C(=S)NC4CC4)cc3)cnc12` [Example 244, N-cyclopropyl-4-{6-(3-fluorophenoxy)-8-[(2-hydroxy-2-methylpropyl)amino]imidazo[1,2-b]pyridazin-3-yl}benzenecarbothioamide] reads 0.3 nM. Take `Cc1cc(-c2cnc3c(NCC4CCOC4)cc(Oc4cccc(F)c4)nn23)ccc1C(=O)NC1CC1` (stereo not shown) [Example 328, N-cyclopropyl-4-{6-(3-fluorophenoxy)-8-[(tetra-hydrofuran-3-ylmethyl)amino]imidazo[1,2-b]pyridazin-3-yl}-2-methyl-benzamide]: the IC50 amounted to 0.3 nM.
